Test results taken from paper PMC4449006, “Targeting KRAS Oncogene in Colon Cancer Cells with 7-Carboxylate Indolo[3,2-b]quinoline Tri-Alkylamine Derivatives” (PLoS ONE, 2015).

Assays:
KRAS21 G-quadruplex DNA = assay: FRET melting assay, KRAS G-quadruplex DNA; format: binding; details: standard deviation < 0.2°C
Method: (§1) The capacity of compounds 1a-d, 2a-d and the standard G4 ligand TMPyP4 (Fig 1) to bind and stabilize KRAS [26] and HSP90A [27] G4 DNA structures as well as duplex DNA (T-loop) was evaluated by a Fluorescence Resonance Energy Transfer (FRET) melting assay. […] It was observed that the basicity of side chains correlates positively with thermal G4 stabilization of all DNA sequences up to an optimal pKa ~ 8.0–9.0 (Fig 2). Heterocyclic amines at the end of alkyl side chain (1b and 2b) appear to improve binding to G4s and complex stabilization compared to the di-ethylamine group (1a and 2a), which cannot be explained by differences in basicity between terminal groups. […] However, this was not observed for the isomeric pair 1a / 2a.
(§2) All oligonucleotides were purchased from Eurofins MWG Synthesis GmbH, Germany. The labeled oligonucleotides used in the FRET assays had attached the donor fluorophore FAM (6-carboxyfluorescein) and the acceptor fluorophore TAMRA (6-carboxytetramethylrhodamine): KRAS21R (5’-FAM-[…]-TAMRA-3’); HSP90A (5’- [FAM]-[…]-[TAMRA]-3’); T-Loop (5’-FAM-[…]-TAMRA-3’). Each oligonucleotide was initially diluted to a storage solution at 100 μM in nuclease free water (not DEPC-treated), purchased from Ambion Applied Biosystems UK.
(§3) The ability of IQ3A and TMPyP4 to stabilize G-quadruplex and duplex DNA sequences was investigated using a Fluorescence Resonance Energy Transfer (FRET) assay. Stock solution of the oligonucleotides sequences at 20 μM and subsequent dilutions were obtained from storage solutions diluting with K-cacodylate buffer pH = 7.4, containing 60 mM K^+ (10 mM potassium cacodylate, 50 mM KCl). The FRET probe sequences were diluted from stock to the correct concentration (0.4 μM) and then annealed by heating to 95°C for 10 min, followed by cooling to RT. Test compounds were prepared as 1 mM in 10% DMSO and 10% 1mM HCl in HPLC-grade water. The rest of the dilutions were performed using FRET buffer. Annealed DNA (50 μL) and compound solution (50 μL) were distributed across 96-well RT-PCR plates (BioRad; MJ Research, Waltham, MA, USA). Relevant controls were also performed to check for interference with the assay. Fluorescence readings were made on a DNA Engine Opticon (MJ Research) with excitation at 450–495 nm and detection at 515–545 nm, taken at intervals of 0.5°C in the range 30–100°C, with a constant temperature being maintained for 30 s prior to each reading to ensure a stable value. Experiments were performed in triplicate. Final analysis of the data was carried out with GraphPad Prism 5.0 software (GraphPad Software, Inc). The advanced curve-fitting function in GraphPad Prism was used for calculation of ΔT m values and associated standard deviations.

HSP90A G-quadruplex DNA = assay: FRET melting assay, HSP90A G-quadruplex DNA; format: binding; details: standard deviation < 0.2°C
Method: as §1, §2, §3

T-Loop duplex DNA = assay: FRET melting assay, duplex DNA; format: binding; details: standard deviation < 0.2°C
Method: as §1, §2, §3

HCT116 cells = assay: MTS short-term cytotoxicity assay (72 h), HCT116; format: cell-based, human
Method: (§4) The short-term effect of compounds at 72 h on cell growth was studied using colorectal carcinoma cell lines with different KRAS and TP53 genotypes: human colorectal carcinoma HCT116 (mut Kras, wild-type (wt) p53), and human metastatic colorectal adenocarcinoma SW620 (mut Kras, mut p53). In parallel, we also used the immortalized human embryonic kidney cell line HEK293T (wt Kras, wt p53) and normal human colon fibroblast cells CCD18co (wt Kras, wt p53).
(§5) SW620 human colorectal adenocarcinoma cells (European Collection of Cell Cultures, ECACC, Porton Down, Wiltshire, UK), HEK293T human embryonic kidney cells (ATCC, LGC Standards, UK) HCT116 human colon carcinoma cells (ECACC), HCT116 p53(+/+) and p53(−/−) isogenic human colon cancer cells (GRCF Cell Center and Biorepository, the Johns Hopkins University, School of Medicine, Baltimore, MD, USA), were grown in Dulbecco’s modified Eagle’s medium (DMEM) supplemented with 10% fetal bovine serum, and 1% antibiotic/antimycotic (Invitrogen, Grand Island, NY, USA), CCD18co human colon fibroblasts (ATCC, CRL-1459) were grown in Minimum Essential Medium (MEM) supplemented with 10% fetal bovine serum, 1% antibiotic/antimycotic, 2 mM GlutaMAX, 0,1 mM Non-essential amino acids (NEAA) (Invitrogen) and […] Recombinant Human TNF-α (Peprotech, USA) and maintained at 37°C in a humidified atmosphere of 5% CO2.
(§6) Cell viability was evaluated by the tetrazolium dye (MTS) Short-Term Cytotoxicity Assay. […] Following 72 h of compound exposure, cell viability was evaluated using the CellTiter 96 AQueous Non-Radioactive Cell Proliferation Assay (Promega, Madison, WI, USA), using 3-(4,5-dimethylthiazol-2-yl)-5-(3-carboxymethoxyphenyl)-2-(4-sulfophenyl)-2H-tetrazolium, inner salt (MTS) as previously described [35]. Cell viability data were expressed as mean ±SD from at least three independent experiments. IC50 and IC65 values were determined using GaphPad Prism v.5.00 (GraphPad Software). In selected experiments, cell viability was also assessed by trypan blue exclusion assay, and general cell death by LDH activity from cell culture supernatants.

SW620 cells = assay: MTS short-term cytotoxicity assay (72 h), SW620; format: cell-based; details: 72 h, MTS, standard errors ≤ 0.1
Method: as §4, §5, §6

CCD18co cells = assay: MTS short-term cytotoxicity assay (72 h), CCD18co; format: cell-based; details: Homo sapiens, CCD-18Co, MTS, standard errors ≤ 0.1, read-out: CCD18co IC50
Method: as §4, §5, §6

KRAS mRNA = KRAS mRNA steady-state levels by Taqman Real-time RT-PCR; details: IC50 concentrations

CCN(CC)CCOC(=O)c1ccc2c(c1)c1nc3ccccc3c(OCCN(CC)CC)c1n2CCN(CC)CC [1a]
ΔTm (°C) KRAS21 1 μM (KRAS21 G-quadruplex DNA; 1 μM compound): 8 °C | ΔTm (°C) KRAS21 2 μM (KRAS21 G-quadruplex DNA; 2 μM compound): 12 °C | ΔTm (°C) HSP90A 1 μM (HSP90A G-quadruplex DNA; 1 μM compound): 14 °C | ΔTm (°C) HSP90A 2 μM (HSP90A G-quadruplex DNA; 2 μM compound): 20 °C | ΔTm (°C) T-Loop 1 μM (T-Loop duplex DNA; 1 μM compound): <2 °C | ΔTm (°C) T-Loop 2 μM (T-Loop duplex DNA; 2 μM compound): 3 °C | HCT116 IC65 (HCT116 cells; 72 h, MTS, standard errors ≤ 0.1): 3.42 µM | Selective index (SI) = IC50 CCD-18co / IC50 HCT116 (HCT116 cells; CCD18co vs HCT116): 2.46 | IC50 (HCT116 cells; Homo sapiens, HCT-116, 72 h, MTS, standard errors ≤ 0.1, read-out: HCT116 IC50): 1.88 µM | SW620 IC65 (SW620 cells): 4.12 µM | IC50 (SW620 cells; Homo sapiens, SW-620, read-out: SW620 IC50): 2.69 µM | IC50 (CCD18co cells): 4.63 µM | down-regulation of KRAS transcription (mRNA) (KRAS mRNA; HCT116, 72 h): ~40% | down-regulation of KRAS transcription (mRNA) (KRAS mRNA; SW620, 72 h): not significantly so
